Test results reported in patent publication US20140100217A1, “[…] OF PROLINE-RICH PEPTIDES AND THEIR USE” (priority 2012, published 2014).
No end group written: not given here.

Assays:
VASP-EVH1 domain [1] = molecular target: T1, VASP-EVH1 domain (Homo sapiens, UniProt P50552); assay: Binding affinity of ligand peptides by kinetic Biacore method
T1 construct: ligand peptides with the VASP-EVH1 domain in solution
Protocol: With the aid of the synthetic compound 85, ligand peptides with partially or completely replaced proline sequences were synthesized by way of example and investigated for their interaction with the EVH1 domain (pp=component 85). […] The binding affinities were determined by means of NMR titration, the kinetic Biacore method or by means of fluorescence titration.

VASP-EVH1 domain [2] = molecular target: T1, VASP-EVH1 domain; type: binding

T1 sequence (P50552 2-113): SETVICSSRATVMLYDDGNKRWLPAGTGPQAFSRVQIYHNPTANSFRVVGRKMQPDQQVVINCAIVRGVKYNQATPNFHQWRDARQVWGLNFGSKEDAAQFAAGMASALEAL

Molecule	Kd (VASP-EVH1 domain [1]) [µM]	binding affinity (KD) (VASP-EVH1 domain [2])
CC(C)C[C@H](NC(=O)[C@H](CCC(=O)O)NC(=O)[C@H](CC(=O)O)NC(=O)[C@H](CCC(=O)O)NC(=O)[C@@H](NC(=O)[C@@H]1CCCN1C(=O)[C@@H]1CC[C@@H]2C=C[C@@H](C)[C@H](NC(=O)[C@@H]3CCCN3C(=O)[C@H](Cc3c[nH]c4ccccc34)NC(=O)[C@H](CCC(=O)O)NC(=O)[C@H](Cc3ccccc3)NC(=O)[C@@H](N)CO)C(=O)N21)[C@@H](C)O)C(=O)O [SFEWPppPTEDEL (II)]	3.7 to 12.5	
FPPPPT [FPPPPT]		measurable affinity for the VASP-EVH1 domain could no longer be determined
